“And” between values parts separate entries of the source, which are not always exact repeats. Equal entries are not always repeated.
How the values were obtained:
human P2X7R = target: T1, human P2X7R (Homo sapiens, UniProt Q99572); assay: fluorometric Ca2+ assay (ATP-induced [Ca2+]i response) in HEKhP2X7 cells; type: cell-based; conditions: fluo-4, 1 mM ATP, read-out: Potency IC50 ± SEM, Human P2X7R
T1 construct: expressed in transfected cells
T1 sequence (Q99572 1-595): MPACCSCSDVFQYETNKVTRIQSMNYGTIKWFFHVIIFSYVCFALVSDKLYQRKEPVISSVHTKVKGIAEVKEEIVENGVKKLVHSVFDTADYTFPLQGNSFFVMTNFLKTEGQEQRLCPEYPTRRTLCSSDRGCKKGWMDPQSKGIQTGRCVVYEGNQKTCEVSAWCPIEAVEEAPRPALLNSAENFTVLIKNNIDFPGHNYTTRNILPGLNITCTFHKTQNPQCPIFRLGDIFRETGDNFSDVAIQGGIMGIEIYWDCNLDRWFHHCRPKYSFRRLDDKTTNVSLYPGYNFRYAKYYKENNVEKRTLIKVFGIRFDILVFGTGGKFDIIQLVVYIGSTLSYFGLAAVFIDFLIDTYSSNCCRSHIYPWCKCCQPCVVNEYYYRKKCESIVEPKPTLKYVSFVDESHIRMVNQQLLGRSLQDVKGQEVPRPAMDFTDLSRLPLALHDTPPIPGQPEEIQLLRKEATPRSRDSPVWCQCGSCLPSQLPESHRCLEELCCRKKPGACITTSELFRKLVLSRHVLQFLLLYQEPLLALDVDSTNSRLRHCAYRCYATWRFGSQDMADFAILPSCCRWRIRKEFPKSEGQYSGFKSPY
Procedure: Cells were grown in a humidified incubator at 37°C in an atmosphere supplemented with 5% CO2. […] HEK293mP2X7 were cultured in DMEM under similar conditions as described above, but containing 100 μg/ml zeocin (Invitrogen). […] Expression of the transgene was induced by supplementing the medium with 1 μg/ml tetracycline (Sigma-Aldrich, Taufkirchen, Germany) 24 h prior to the experiments. All fluorometric Ca^2+ assays in cell suspensions were performed in 384-microwell plates (Corning, No. 3655, Lowell, MA, USA) with a fluorescence-imaging microplate reader (POLARstar Omega, BMG Labtech, Offenburg, Germany) (for details, see [61, 68]). […] Microwell plates were repetitively scanned every 16 s in the fast scanning mode of the device. […] Data were normalized to the baseline values before ATP application (F/F0). […] ATP-solution was freshly prepared in Mg^2+-free HBS solution and adjusted to pH 7.4. Aliquots of stock solutions were stored at -20°C and freshly diluted with the appropriate HBS solution. […] Results are expressed as mean ± SEM. […] In the PTZ-T, the number of animals in the group with clonic seizures and the latency time were analysed using Fisher's exact probability test and the Mann-Whitney rank sum test, respectively. For multiple comparisons of the latency time a one-way ANOVA with the Holm-Sidak post hoc test was used. The influence of AFC on the plasma and brain concentrations of the antiepileptic drugs was statistical compared using the same procedure. In the PTZ-kindling model, the mean seizure stage within a group was calculated in relation to the number of PTZ-injections. Statistical comparison between vehicle- and compound-treated groups in this model was performed with two-way repeated measures ANOVA, followed by the Holm-Sidak post hoc test. […] In fully kindled rats, the calculated mean seizure stage within a group after vehicle- and compound-treatment were compared using a paired t-test. P < 0.05 was the accepted minimum level of significance.

[1] = test system: PTZ-induced seizures in fully PTZ-kindled rats; assay: PTZ-induced seizures in fully kindled rats; type: in vivo; conditions: for effect on mean seizure stage in fully kindled rats: TIIAS 30 mg/kg i.p., BBG 50 mg/kg i.p., AFC 25 mg/kg i.p., JNJ 30 mg/kg s.c., acute
Excerpt: Results were expressed as mean seizure stages of a tested group in which the seizure behaviour after vehicle treatment (vehicle seizure stage) and after compound treatment (compound seizure stage), examined 3-4 days later, was matched. For comparison, the effectiveness of two antiepileptic drugs (carbamazepine and valproate) was also investigated. […] Chemicals, Toronto, Canada) was slowly added. The pH was adjusted with 1N NaOH (similar amount of NaOH as HCl), all with continuous stirring. […] The drug solutions or suspensions were prepared immediately before use; all doses refer to the salts. Animals in the control group received equivalent volumes of the vehicle (in mice always 10 ml/kg, in rats 1 ml/kg [JNJ], 3 ml/kg [AFC] or 4 ml/kg [BBG, TIIAS], depending on the solubility of the different compounds). Doses and peak time effects were selected on the basis of effective doses from corresponding in vivo studies in the literature: BBG (e.g.), tanshinone IIA (e.g.) and from manufacturer's experimental data: AFC, JNJ (see, [80]). Data were analysed using SigmaPlot (vers. 12.0, Systat Software, Erkrath, Germany) and SPSS (IBM SPSS Statistics 20, […], Germany), respectively. Results are expressed as mean ± SEM. […] In the MES-T, the current intensity inducing tonic hindlimb extensions in 50% of the mice (CC50 values with confidence limits for 95% probability) and the statistical significance was calculated using Probit analysis (SPSS). […] In the PTZ-T, the number of animals in the group with clonic seizures and the latency time were analysed using Fisher's exact probability test and the Mann-Whitney rank sum test, respectively. For multiple comparisons of the latency time a one-way ANOVA with the Holm-Sidak post hoc test was used. The influence of AFC on the plasma and brain concentrations of the antiepileptic drugs was statistical compared using the same procedure. In the PTZ-kindling model, the mean seizure stage within a group was calculated in relation to the number of PTZ-injections. Statistical comparison between vehicle- and compound-treated groups in this model was performed with two-way repeated measures ANOVA, followed by the Holm-Sidak post hoc test. The mean number of PTZ-injections needed to produce the first generalized seizure (≥ stage 3 convulsions) in the vehicle- versus compound-treated groups was statistically compared using a Mann-Whitney rank sum test. In fully kindled rats, the calculated mean seizure stage within a group after vehicle- and compound-treatment were compared using a paired t-test. P < 0.05 was the accepted minimum level of significance.

Row | SMILES | IC50 (human P2X7R) | effect on mean seizure stage in fully kindled rats [1] | mean seizure stage, post-drug ([1]; fully kindled rats, 15 mg/kg s.c., pre-drug (vehicle) value 4.4, significant)
1 | CCOc1ccc(Nc2ccc(/C(=C3C=C/C(=[N+](/CC)Cc4cccc(S(=O)(=O)[O-])c4)C=C/3C)c3ccc(N(CC)Cc4cccc(S(=O)(=O)O)c4)cc3C)cc2)cc1 [Brilliant Blue G] | 980 ± 70 nM | tendency to reduce the mean seizure stage | –
2 | O=C(NCC1(N2CCN(c3ccccc3)CC2)CCOCC1)c1cccnc1Sc1ccccc1 [JNJ-47965567, N-[[4-(4-phenyl-piperazin-1-yl)tetrahydro-2H-pyran-4-yl]-methyl]-2-(phenyl-thio) nicotinamide] | 5 ± 0.5 nM | tendency to reduce the mean seizure stage | 2.9
3 | Cc1c(S(=O)(=O)[O-])oc2c1C(=O)C(=O)c1c-2ccc2c1CCCC2(C)C.[Na+] [Tanshinone TIIAS, tanshinone IIS sulfonic sodium] | 300 nM and 310 nM | tendency to reduce the mean seizure stage | –

From article PMC4900628, “Critical Evaluation of P2X7 Receptor Antagonists in Selected Seizure Models” (PLoS ONE, 2016)
